# Laboratory results published in ChEMBL document CHEMBL4196111, “ROR(GMMA)T Modulating Activity for the Treatment of Cancers” (ACS Med Chem Lett, 2018).
# Target: T1, Nuclear receptor ROR-gamma (Mus musculus) (UniProt P51450)
# T1 sequence (whole entry): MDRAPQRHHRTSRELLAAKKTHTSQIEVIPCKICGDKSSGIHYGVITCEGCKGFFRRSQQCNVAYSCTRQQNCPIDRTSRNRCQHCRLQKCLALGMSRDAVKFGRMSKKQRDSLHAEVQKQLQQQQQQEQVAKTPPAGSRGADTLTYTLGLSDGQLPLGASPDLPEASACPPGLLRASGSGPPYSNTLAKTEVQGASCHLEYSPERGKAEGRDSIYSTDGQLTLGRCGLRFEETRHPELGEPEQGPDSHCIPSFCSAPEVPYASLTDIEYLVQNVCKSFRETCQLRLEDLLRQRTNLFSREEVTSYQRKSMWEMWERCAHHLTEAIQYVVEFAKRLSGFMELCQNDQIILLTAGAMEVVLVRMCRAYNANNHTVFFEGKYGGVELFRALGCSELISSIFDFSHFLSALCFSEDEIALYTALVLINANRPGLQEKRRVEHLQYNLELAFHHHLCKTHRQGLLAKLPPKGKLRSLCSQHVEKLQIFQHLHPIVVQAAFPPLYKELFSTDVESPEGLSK
# Experiment: Modulation of RORgammat in mouse Th17 cells assessed as […] IL17A production at 3 uM relative to control
# Type: cell-based
row,SMILES,Activity [%]
1,CCS(=O)(=O)c1ccc(CNC(=O)c2ccc3c(n2)CCCN3c2cc(C3CC3)nc(C3CC3)c2)nc1,533
2,CCOC(=O)c1cc(S(=O)(=O)CC)ccc1CNC(=O)c1ccc2c(n1)CCCN2c1cc(C2CC2)nc(C2CC2)c1,572
3,CS(=O)(=O)c1ccc(CNC(=O)c2ccc3c(n2)OCCN3c2cc(C3CC3)nc(C3CC3)c2)c(F)c1,324
4,CS(=O)(=O)c1ccc(CNC(=O)c2ccc3c(n2)CCCN3c2cc(C3CC3)nc(C3CC3)c2)c(C(N)=O)c1,483

# The next lines start with the values.
row,Activity [%],SMILES
1,373,CS(=O)(=O)c1ccc(CNC(=O)c2ccc3c(n2)OCCN3c2cc(C3CC3)nc(C3CC3)c2)cc1
2,533,CS(=O)(=O)c1ccc(C(CO)NC(=O)c2ccc3c(n2)CCCN3c2cc(C3CC3)nc(C3CC3)c2)cc1 (stereo not drawn)
3,443,CS(=O)(=O)c1ccc(CNC(=O)c2ccc3c(c2)OCCC3c2cc(C3CC3)nc(C3CC3)c2)nc1 (stereo not drawn)
4,452,CS(=O)(=O)c1ccc(CNC(=O)c2ccc3c(n2)CCCN3c2cc(C3CC3)nc(C3CC3)c2)nc1
